Measured values taken from the NIST ThermoML archive (doi:10.1021/je100598x).

Assay: cn = amount concentration of the nth substance listed, in mol/dm3
Details: 101 kPa, Liquid, Direct current cell with electrodes

CCCCCCCCCCCC[N+](CCC)(CCC)CCC.[Br-] [dodecyltripropylammonium bromide] + O
electrical conductivity [S/m]
Details	288.15 K	293.15 K	298.15 K	303.15 K	308.15 K	313.15 K	318.15 K
c1 = 0.001055	0.00819	0.00909	0.01006	0.01131	0.01244	0.0137	0.0147
c1 = 0.002089	0.0153	0.01734	0.01942	0.0217	0.0238	0.0261	0.0282
c1 = 0.003101	0.0222	0.025	0.0282	0.0316	0.0345	0.038	0.0412
c1 = 0.004092	0.0285	0.0326	0.0367	0.041	0.0449	0.0496	0.0538
c1 = 0.005063	0.0346	0.0398	0.0448	0.0501	0.0546	0.0605	0.0657
c1 = 0.006015	0.0405	0.0467	0.0527	0.059	0.0643	0.0712	0.0774
c1 = 0.006948	0.0461	0.0533	0.0599	0.0675	0.0741	0.0816	0.0886
c1 = 0.007862	0.0516	0.0594	0.0674	0.0757	0.083	0.0912	0.0991
c1 = 0.008759	0.0566	0.0658	0.0743	0.0832	0.0913	0.1001	0.109
c1 = 0.009639	0.0619	0.0714	0.0804	0.0896	0.0982	0.108	0.117
c1 = 0.0105	0.0661	0.0761	0.0846	0.0945	0.1035	0.1136	0.1242
c1 = 0.01135	0.0702	0.0797	0.0883	0.0984	0.108	0.118	0.13
c1 = 0.01218	0.0731	0.0825	0.0919	0.1018	0.1117	0.1228	0.1348
c1 = 0.01319	0.0759	0.0851	0.0953	0.106	0.116	0.128	0.1405
c1 = 0.01419	0.0783	0.0883	0.0985	0.109	0.1203	0.1325	0.146
c1 = 0.01516	0.0806	0.0906	0.1015	0.1128	0.1242	0.137	0.1512
c1 = 0.01657	0.0837	0.0942	0.106	0.118	0.13	0.1433	0.157
c1 = 0.01794	0.0866	0.0976	0.11	0.1224	0.135	0.149	0.165
c1 = 0.01927	0.0895	0.1009	0.1137	0.127	0.1404	0.155	0.1719
c1 = 0.02055	0.0921	0.1041	0.117	0.1312	0.145	0.161	0.178
c1 = 0.02179	0.0947	0.107	0.1211	0.135	0.15	0.166	0.1843
c1 = 0.023	0.0973	0.1101	0.1245	0.139	0.1545	0.1709	0.1906
c1 = 0.02417	0.0996	0.113	0.128	0.1433	0.159	0.175	0.196
